From US6969721B2, “Tricyclic-2-pyridone compounds useful as HIV reverse transcriptase inhibitors” (Bristol-Myers Squibb Pharma, priority 2000, dated 2005)

Row | melting point | Compound
1 | 230 to 235 °C | O=c1[nH]ccc2c1Nc1ccc(Cl)cc1C2(CNC1CC1)C(F)(F)F (centres unmarked) [Example 22, 7-Chloro-5-(N-cyclopropylaminomethyl)-5-trifluoromethyl-5,10-dihydrobenzo[b]-1,7-naphthyridin-1(2H)-one]
2 | 243 to 245 °C | CCCNCC1(C(F)(F)F)c2cc(Cl)ccc2Nc2c1cc[nH]c2=O (centres unmarked) [Example 33, 7-Chloro-5-(n-propylaminomethyl)-5-trifluoromethyl-5,10-dihydrobenzo[b]-1,7-naphthyridin-1(2H)-one]
3 | 138 to 142 °C | CC(C)OCC1(C(F)F)c2cc(Cl)ccc2Nc2c1cc[nH]c2=O (centres unmarked) [Example 64b, 7-Chloro-5-(i-propoxymethyl)-5-difluoromethyl-5,10-dihydrobenzo[b]-1,7-naphthyridin-1(2H)-one]
4 | 220 to 222 °C | O=c1[nH]ccc2c1Nc1ccc(Cl)cc1C2(CCC1CC1)C(F)(F)F (centres unmarked) [Example 20, 7-Chloro-5-(2-cyclopropylethyl)-5-trifluoromethyl-5,10-dihydrobenzo[b]-1,7-naphthyridin-1(2H)-one]
5 | 182 to 185 °C | CCCCC1(C#N)c2cc(Cl)ccc2Nc2c1cc[nH]c2=O (centres unmarked) [Example 63, 7-Chloro-5-(n-butyl)-5-cyano-5,10-dihydrobenzo[b]-1,7-naphthyridin-1(2H)-one]
6 | 210 to 215 °C | CC(C)CNCC1(C(F)(F)F)c2cc(Cl)ccc2Nc2c1cc[nH]c2=O (centres unmarked) [Example 35, 7-Chloro-5-(i-butylaminomethyl)-5-trifluoromethyl-5,10-dihydrobenzo[b]-1,7-naphthyridin-1(2H)-one]
7 | 260 to 265 °C | CCCCC1(CO)c2cc(Cl)ccc2Nc2c1cc[nH]c2=O (centres unmarked) [Example 64, 7-Chloro-5-(n-butyl)-5-(hydroxymethyl)-5,10-dihydrobenzo[b]-1,7-naphthyridin-1(2H)-one]
8 | 268 to 271 °C | COCCC1(C(F)(F)F)c2cc(Cl)ccc2Nc2c1cc[nH]c2=O (centres unmarked) [Example 29, 7-Chloro-5-(2-methoxyethyl)-5-trifluoromethyl-5,10-dihydrobenzo[b]-1,7-naphthyridin-1(2H)-one]
9 | 215 to 216 °C | CC(C)SCC1(C(F)(F)F)c2cc(F)ccc2Nc2c1cc[nH]c2=O (centres unmarked) [Example 45, 7-Fluoro-5-(i-propylsulfanylmethyl)-5-trifluoromethyl-5,10-dihydrobenzo[b]-1,7-naphthyridin-1(2H)-one]
10 | 270 to 275 °C | O=c1[nH]ccc2c1Nc1ccc(Cl)cc1C2(Cc1ccccn1)C(F)(F)F (centres unmarked) [Example 19, 7-Chloro-5-(2-pyridylmethyl)-5-trifluoromethyl-5,10-dihydrobenzo[b]-1,7-naphthyridin-1(2H)-one]
11 | 267 to 270 °C | CCCCC1(C(C)(F)F)c2cc(F)ccc2Nc2c1cc[nH]c2=O (centres unmarked) [Example 66, 5-(n-Butyl)-5-(1,1-difluoroethyl)-7-Fluoro-5,10-dihydrobenzo[b]-1,7-naphthyridin-1(2H)-one]
12 | 235 to 240 °C | CC(C)NCC1(C(F)(F)F)c2cc(Cl)ccc2Nc2c1cc[nH]c2=O (centres unmarked) [Example 30, 7-Chloro-5-(i-propylaminomethyl)-5-trifluoromethyl-5,10-dihydrobenzo[b]-1,7-naphthyridin-1(2H)-one]
13 | 105 to 110 °C | CC(C)N(C)CC1(C(F)(F)F)c2cc(Cl)ccc2Nc2c1cc[nH]c2=O (centres unmarked) [Example 31, 7-Chloro-5-(N-methyl-N-i-propylaminomethyl)-5-trifluoromethyl-5,10-dihydrobenzo[b]-1,7-naphthyridin-1(2H)-one]
14 | 247 to 250 °C | O=c1[nH]ccc2c1Nc1ccc(Cl)cc1C2(C#CC1CC1)C(F)(F)F (centres unmarked) [Example 21, 7-Chloro-5-cyclopropylethynyl-5-trifluoromethyl-5,10-dihydrobenzo[b]-1,7-naphthyridin-1(2H)-one]
15 | 162 to 165 °C | CCCOCC1(C(F)(F)F)c2cc(Cl)ccc2Nc2c1cc[nH]c2=O (centres unmarked) [Example 27, 7-Chloro-5-(n-propoxymethyl)-5-trifluoromethyl-5,10-dihydrobenzo[b]-1,7-naphthyridin-1(2H)-one]
16 | 245 to 248 °C | CCCCC1(C(F)(F)F)c2cc(Cl)ccc2Nc2c1cc[nH]c2=O (centres unmarked) [Example 18, 5-Butyl-7-chloro-5-trifluoromethyl-5,10-dihydrobenzo[b]-1,7-naphthyridin-1(2H)-one]
17 | 265 to 267 °C | CCOCC1(C(C)(F)F)c2cc(Cl)ccc2Nc2c1cc[nH]c2=O (centres unmarked) [Example 68, 7-Chloro-5-(ethoxymethyl)-5-(1,1-difluoroethyl)-5,10-dihydrobenzo[b]-1,7-naphthyridin-1(2H)-one]
18 | 220 to 221 °C | CC(C)SCC1(C(F)(F)F)c2cc(Cl)ccc2Nc2c1cc[nH]c2=O (centres unmarked) [Example 44, 7-Chloro-5-(i-propylsulfanylmethyl)-5-trifluoromethyl-5,10-dihydrobenzo[b]-1,7-naphthyridin-1(2H)-one]
19 | 240 to 245 °C | CCOCCC1(C(F)(F)F)c2cc(Cl)ccc2Nc2c1cc[nH]c2=O (centres unmarked) [Example 62, 7-Chloro-5-(ethoxyethyl)-5-trifluoromethyl-5,10-dihydrobenzo[b]-1,7-naphthyridin-1(2H)-one]
20 | 120 to 122 °C | CCCCC1(C(C)(F)F)c2cc(Cl)ccc2Nc2c1cc[nH]c2=O (centres unmarked) [Example 65, 7-Chloro-5-(n-butyl)-5-(1,1-difluoroethyl)-5,10-dihydrobenzo[b]-1,7-naphthyridin-1(2H)-one]
21 | 247 to 249 °C | CC(C)(C)SCC1(C(F)(F)F)c2cc(Cl)ccc2Nc2c1cc[nH]c2=O (centres unmarked) [Example 46, 7-Chloro-5-(t-butylsulfanylmethyl)-5-trifluoromethyl-5,10-dihydrobenzo[b]-1,7-naphthyridin-1(2H)-one]
22 | 132.2 to 134.7 °C | CCCCC1(C(C)(F)F)c2cc(C#N)ccc2Nc2c1cc[nH]c2=O (centres unmarked) [Example 67, 7-Cyano-5-(n-butyl)-5-(1,1-difluoroethyl)-5,10-dihydrobenzo[b]-1,7-naphthyridin-1(2H)-one]
23 | 185 to 190 °C | CC(C)OCC1(C(F)(F)F)c2cc(Cl)ccc2Nc2c1cc[nH]c2=O (centres unmarked) [Example 28, 7-Chloro-5-(i-propoxymethyl)-5-trifluoromethyl-5,10-dihydrobenzo[b]-1,7-naphthyridin-1(2H)-one]
24 | 177 to 179 °C | CCCCC1(C)c2cc(Cl)ccc2Nc2c1cc[nH]c2=O (centres unmarked) [Example 61a, 7-Chloro-5-(n-butyl)-5-methyl-5,10-dihydrobenzo[b]-1,7-naphthyridin-1(2H)-one]
25 | 242 to 245 °C | O=c1[nH]ccc2c1Nc1ccc(Cl)cc1C2(CNC1CC1)C(F)(F)F (centres unmarked) [Example 32, 7-Chloro-5-(cyclopropylaminomethyl)-5-trifluoromethyl-5,10-dihydrobenzo[b]-1,7-naphthyridin-1(2H)-one]
26 | 270 to 275 °C | O=c1[nH]ccc2c1Nc1ccc(Cl)cc1C2(CO)C(F)(F)F (centres unmarked) [Example 23, 7-Chloro-5-hydroxymethyl-5-trifluoromethyl-5,10-dihydrobenzo[b]-1,7-naphthyridin-1(2H)-one]
27 | 198 to 200 °C | CCCCC1(C(F)F)c2cc(Cl)ccc2Nc2c1cc[nH]c2=O (centres unmarked) [Example 64a, 7-Chloro-5-(n-butyl)-5-difluoromethyl-5,10-dihydrobenzo[b]-1,7-naphthyridin-1(2H)-one]
28 | 195 to 197 °C | CC(C)OCC1(C(F)(F)F)c2cc(Cl)ccc2Nc2c1cc[nH]c2=O (centres unmarked) [Example 36, 7-Chloro-5-(i-propoxymethyl)-5-trifluoromethyl-5,10-dihydrobenzo[b]-1,7-naphthyridin-1(2H)-one]
29 | 250 to 254 °C | O=c1[nH]ccc2c1Nc1ccc(Cl)cc1C2(CNC1CCC1)C(F)(F)F (centres unmarked) [Example 34, 7-Chloro-5-(cyclobutylaminomethyl)-5-trifluoromethyl-5,10-dihydrobenzo[b]-1,7-naphthyridin-1(2H)-one]
